The values below come from patent US20120251551A1, “Substituted (Heteroarylmethyl)thiohydantoins” (BAYER PHARMA AKTIENGESELLSCHAFT, priority 2009, published 2012).

Molecules are shown by their SMILES. Numbering of substitutions follows the chain as printed. Read-outs that look alike come from different tables or passages of the source. Where only a bound is given, the exact number is not on record here.

Assay [1] concerns the target T1, wild-type human androgen receptor (Homo sapiens, UniProt P10275).
T1 construct: expressed in transfected cells
T1 sequence (P10275 1-920): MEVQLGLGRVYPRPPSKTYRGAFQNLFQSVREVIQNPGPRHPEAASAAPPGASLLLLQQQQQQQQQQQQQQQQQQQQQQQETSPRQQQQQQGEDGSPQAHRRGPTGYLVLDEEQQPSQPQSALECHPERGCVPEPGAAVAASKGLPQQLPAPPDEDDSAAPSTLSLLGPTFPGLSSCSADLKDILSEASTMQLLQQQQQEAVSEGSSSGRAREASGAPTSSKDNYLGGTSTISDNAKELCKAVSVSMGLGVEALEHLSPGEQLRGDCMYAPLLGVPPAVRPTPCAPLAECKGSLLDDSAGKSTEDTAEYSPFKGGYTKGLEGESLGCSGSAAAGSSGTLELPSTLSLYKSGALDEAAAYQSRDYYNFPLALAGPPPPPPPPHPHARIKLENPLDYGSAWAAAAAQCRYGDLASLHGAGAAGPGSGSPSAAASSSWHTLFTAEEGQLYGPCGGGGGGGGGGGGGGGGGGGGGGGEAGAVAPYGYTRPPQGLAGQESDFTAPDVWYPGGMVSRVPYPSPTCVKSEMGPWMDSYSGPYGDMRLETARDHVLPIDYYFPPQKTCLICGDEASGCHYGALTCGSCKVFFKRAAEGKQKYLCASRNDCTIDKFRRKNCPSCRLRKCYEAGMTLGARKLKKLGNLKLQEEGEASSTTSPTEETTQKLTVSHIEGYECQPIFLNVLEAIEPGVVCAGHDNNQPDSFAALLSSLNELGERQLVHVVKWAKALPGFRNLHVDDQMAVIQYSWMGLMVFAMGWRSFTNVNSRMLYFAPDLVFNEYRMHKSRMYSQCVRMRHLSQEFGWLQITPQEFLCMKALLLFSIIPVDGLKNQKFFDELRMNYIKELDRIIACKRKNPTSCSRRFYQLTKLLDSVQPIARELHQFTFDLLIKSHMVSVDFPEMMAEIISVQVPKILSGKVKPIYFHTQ
The assay can be described thus: Cell-based transactivation assay for wild-type human androgen receptor (PC-3 cells, MMTV-luciferase reporter).

Assay [2] addresses T2, human androgen receptor W741L mutant (Homo sapiens, UniProt P10275, W742L).
T2 construct: expressed in transfected cells; host or cells: PC-3 cells, transient transfection with a pSG5-derived plasmid
T2 sequence (P10275 1-920 W742L): T1 sequence (P10275 1-920) with W742L
The assay can be described thus: Cell-based transactivation assay for human androgen receptor mutant W741L.

For a further assay, the system named is VCaP cells. The experiment in a line: Proliferation assay with VCaP cells. Format: cell-based. To be noted: Homo sapiens, 168 h, R1881 (1×10^−10) stimulated growth. The method, boiled down:
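Cells in DMEM with 10% charcoal-stripped serum treated one day after seeding with R1881 (1×10^−10) plus compound. Cell number read by Alamar Blue fluorescence (ex 530/em 590 nm) at day 0 and day 7; day-7 R1881-only signal defines stimulated growth, day-7 signal without R1881 defines basal level.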

The subject of another assay is LNCaP cells. The experiment in a line: Proliferation assay with LNCaP cells. Format: cell-based. To be noted: Homo sapiens, 168 h, R1881 (1×10^−10) stimulated growth, day 7, read-out: inhibition IC50 (LNCaP). The method, boiled down:
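LNCaP cells were grown in phenol red-free RPMI with 5% charcoal-stripped serum and, after 3 days, treated with R1881 (1×10^−10) plus compound. Cell number was measured by Alamar Blue fluorescence at day 0 and day 7. R1881-only signal at day 7 defined stimulated growth, and day-7 signal without R1881 defined basal.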

The mark [3] stands for this setting: day 7, read-out: Antiproliferative activity VCaP IC50.
Setting [4] is: day 7, read-out: inhibition IC50 (VCaP).

Broadly, the EC50 is the concentration at which the effect is half-maximal. A higher EC50 goes with weaker potency. The IC50 is the concentration needed to halve the response being measured. Turning to `CN1C(=S)N(c2ccc(C#N)c(C(F)(F)F)c2)C(=O)C1(C)C` [2-(Trifluoromethyl)-4-(3,4,4-trimethyl-5-oxo-2-thioxoimidazolidin-1-yl)benzonitrile, reference compound], the EC50 in assay [1] came out at 7.97 nM. Further, the IC50 in assay [2] was 159 nM; in the assay with VCaP cells (setting [3]) it was above 1000 nM.
For `CC1(C)C(=O)N(c2ccc(C#N)c(C(F)(F)F)c2)C(=S)N1CCCCO` [4-[3-(4-Hydroxybutyl)-4,4-dimethyl-5-oxo-2-thioxoimidazolidin-1-yl]-2-(trifluoromethyl)benzonitrile, reference compound], in that order: 8.13 nM, 89.7 nM and above 1000 nM.
For `CC1(C)C(=O)N(c2ccc(C#N)c(C(F)(F)F)c2)C(=S)N1Cc1ccc(F)cc1` [Comparative data^4], in that order: 1.79 nM, above 1000 nM and above 1000 nM.
The corresponding values for `CC1(C)C(=O)N(c2ccc(C#N)c(C(F)(F)F)c2)C(=S)N1Cc1ccccc1` [Comparative data^4] are 46.4 nM, 166 nM and above 1000 nM.
For `CC1(C)C(=O)N(c2ccc(C#N)c(C(F)(F)F)c2)C(=S)N1Cc1ccc(-n2ccnc2)nc1` [Example 1, 4-(3-{[6-(1H-Imidazol-1-yl)pyridin-3-yl]methyl}-4,4-dimethyl-5-oxo-2-thioxoimidazolidin-1-yl)-2-(trifluoromethyl)benzonitrile], the IC50 turned out to be 59 nM with LNCaP cells, 173 nM in assay [2] and 291 nM in the assay on VCaP cells (setting [3]). The same compound yielded a half-maximal effective concentration (EC50) in assay [1] above 10000 nM.
`CC1(C)C(=O)N(c2ccc(C#N)c(C(F)(F)F)c2)C(=S)N1Cc1ccc(C(F)(F)F)nc1` [Example 2, 4-(4,4-Dimethyl-5-oxo-2-thioxo-3-{[6-(trifluoromethyl)pyridin-3-yl]methyl}imidazolidin-1-yl)-2-(trifluoromethyl)benzonitrile]: the IC50 in the assay with LNCaP cells turned out to be 314 nM; in assay [2], 86.7 nM; with VCaP cells (setting [3]) it was 247 nM. In assay [1], this compound had an EC50 of 5430 nM.
For the compound `CC1(C)C(=O)N(c2ccc(C#N)c(C(F)(F)F)c2)C(=S)N1Cc1ccc(N2CCOCC2)nc1` [Example 4, 4-(4,4-Dimethyl-3-{[6-(morpholin-4-yl)pyridin-3-yl]methyl}-5-oxo-2-thioxoimidazolidin-1-yl)-2-(trifluoromethyl)benzonitrile], the IC50 with LNCaP cells was determined as 117 nM; in assay [2], 89.2 nM; in the assay on VCaP cells (setting [3]) it was 124 nM; in the assay on VCaP cells (setting [4]) it was 124 nM. Moreover, the EC50 in assay [1] was above 10000 nM.
For the compound `CC1(C)C(=O)N(c2ccc(C#N)c(C(F)(F)F)c2)C(=S)N1Cc1ccc(N2CCS(=N)(=O)CC2)nc1` [Example 9, 4-(3-{[6-(1-Imino-1-oxido-1λ^6-thiomorpholin-4-yl)pyridin-3-yl]methyl}-4,4-dimethyl-5-oxo-2-thioxoimidazolidin-1-yl)-2-(trifluoromethyl)benzonitrile], the figures for the IC50 (in the assay on LNCaP cells; in assay [2]) were 303 nM and 275 nM, respectively. Also, the concentration for a half-maximal effect (EC50) in assay [1] was above 10000 nM.
For the compound `CC(C)(O)COc1ccc(CN2C(=S)N(c3ccc(C#N)c(C(F)(F)F)c3)C(=O)C2(C)C)cn1` [Example 10, 4-(3-{[6-(2-Hydroxy-2-methylpropoxy)pyridin-3-yl]methyl}-4,4-dimethyl-5-oxo-2-thioxoimidazolidin-1-yl)-2-(trifluoromethyl)benzonitrile], the IC50 came to 283 nM with LNCaP cells, 285 nM in assay [2], 229 nM in the assay on VCaP cells (setting [3]) and 229 nM in the assay on VCaP cells (setting [4]). Further, the EC50 in assay [1] was above 10000 nM.
`Cc1nc(C(F)(F)F)ccc1CN1C(=S)N(c2ccc(C#N)c(C(F)(F)F)c2)C(=O)C1(C)C` [Example 13, 4-(4,4-Dimethyl-3-{[2-methyl-6-(trifluoromethyl)pyridin-3-yl]methyl}-5-oxo-2-thioxoimidazolidin-1-yl)-2-(trifluoromethyl)benzonitrile]: the IC50 in the assay with LNCaP cells was 124 nM; in assay [2], 93.7 nM; in the assay with VCaP cells (setting [3]) it was 300 nM. Besides, in assay [1], the EC50 is above 10000 nM.
